{"source": "patent US20260265265A1", "about": "“NOVEL BENZIMIDAZOLONE DERIVATIVE COMPOUND AS AUTOTAXIN INHIBITOR” (LG CHEM, LTD., priority 2023, published 2026)", "target": "T1, Recombinant Human ENPP-2/Autotaxin (Homo sapiens, UniProt Q13822)", "T1 construct": "purchased R&D systems 5255-EN", "test": "LysoPLD activity measurement (autotaxin enzyme inhibition, choline release, TOOS reagent)", "assay_type": "biochemical", "conditions": "LysoPLD inhibitory activity; substrate 14:0 LysoPC; absorbance at 555 nm", "outline": "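Autotaxin lysoPLD activity was read as choline released from 14:0 LysoPC, detected by TOOS reagent absorbance. Compound was preincubated 30 min, then substrate diluted to 300 μM was added and the reaction ran 90 minutes at 37° C. Controls contained 1% DMSO.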"}
{"smiles": "O=C(O)c1coc(Cn2c(=O)n(-c3ccc(N4CCOCC4)cc3)c3c(F)c(Cl)ccc32)n1", "note": "[Example 199, 2-((5-chloro-4-fluoro-3-(4-morpholinophenyl)-2-oxo-2,3-dihydro-1H-benzo[d]imidazol-1-yl)methyl)oxazole-4-carboxylic acid]", "values": [{"measurement": "IC50", "value": "100 to 1000", "unit": "nM"}]}
{"smiles": "O=C(O)c1cc(Cn2c(=O)n(-c3ccc(N4CCOCC4)cc3)c3c(F)c(Cl)ccc32)cc(F)c1F", "note": "[Example 202, 5-((5-chloro-4-fluoro-3-(4-morpholinophenyl)-2-oxo-2,3-dihydro-1H-benzo[d]imidazol-1-yl)methyl)-2,3-difluorobenzoic acid]", "values": [{"measurement": "IC50", "value": "10 to 100", "unit": "nM"}]}
{"smiles": "O=C(O)c1cc(Cn2c(=O)n(-c3ccc(N4CCOCC4)cc3)c3cc(Cl)ccc32)cc(F)c1F", "note": "[Example 203, 5-((5-chloro-3-(4-morpholinophenyl)-2-oxo-2,3-dihydro-1H-benzo[d]imidazol-1-yl)methyl)-2,3-difluorobenzoic acid]", "values": [{"measurement": "IC50", "value": "10 to 100", "unit": "nM"}]}
{"smiles": "O=C(O)c1c(F)ccc(Cn2c(=O)n(-c3ccc(N4CCOCC4)cc3)c3c(F)c(Cl)ccc32)c1F", "note": "[Example 204, 3-((5-chloro-4-fluoro-3-(4-morpholinophenyl)-2-oxo-2,3-dihydro-1H-benzo[d]imidazol-1-yl)methyl)-2,6-difluorobenzoic acid]", "values": [{"measurement": "IC50", "value": "10 to 100", "unit": "nM"}]}
{"smiles": "O=C(O)c1c(F)ccc(Cn2c(=O)n(-c3ccc(N4CCOCC4)cc3)c3cc(Cl)ccc32)c1F", "note": "[Example 205, 3-((5-chloro-3-(4-morpholinophenyl)-2-oxo-2,3-dihydro-1H-benzo[d]imidazol-1-yl)methyl)-2,6-difluorobenzoic acid]", "values": [{"measurement": "IC50", "value": "10 to 100", "unit": "nM"}]}
{"smiles": "CN(C)c1ccc(-n2c(=O)n(C3(c4cccc(C(=O)O)c4)CC3)c3ccc(C(F)(F)F)cc32)cc1", "note": "[Example 206, 3-(1-(3-(4-(dimethylamino)phenyl)-2-oxo-5-(trifluoromethyl)-2,3-dihydro-1H-benzo[d]imidazol-1-yl)cyclopropyl)benzoic acid]", "values": [{"measurement": "IC50", "value": "10 to 100", "unit": "nM"}]}
{"smiles": "O=C(O)c1cccc(C2(n3c(=O)n(-c4ccc(N5CCOCC5)cc4)c4cc(C(F)(F)F)ccc43)CC2)c1", "note": "[Example 207, 3-(1-(3-(4-morpholinophenyl)-2-oxo-5-(trifluoromethyl)-2,3-dihydro-1H-benzo[d]imidazol-1-yl)cyclopropyl)benzoic acid]", "values": [{"measurement": "IC50", "value": "< 10", "unit": "nM"}]}
{"smiles": "CN(C)c1ccc(-n2c(=O)n(C3(c4cccc(C(=O)O)c4)CC3)c3ccc(OC(F)(F)F)cc32)cc1", "note": "[Example 208, 3-(1-(3-(4-(dimethylamino)phenyl)-2-oxo-5-(trifluoromethoxy)-2,3-dihydro-1H-benzo[d]imidazol-1-yl)cyclopropyl)benzoic acid]", "values": [{"measurement": "IC50", "value": "10 to 100", "unit": "nM"}]}
{"smiles": "O=C(O)c1cccc(C2(n3c(=O)n(-c4ccc(N5CCOCC5)cc4)c4cc(OC(F)(F)F)ccc43)CC2)c1", "note": "[Example 209, 3-(1-(3-(4-morpholinophenyl)-2-oxo-5-(trifluoromethoxy)-2,3-dihydro-1H-benzo[d]imidazol-1-yl)cyclopropyl)benzoic acid]", "values": [{"measurement": "IC50", "value": "10 to 100", "unit": "nM"}]}
{"smiles": "CN(C)S(=O)(=O)c1ccc(-n2c(=O)n(C3(c4cccc(C(=O)O)c4)CC3)c3ccc(Cl)cc32)cc1", "note": "[Example 210, 3-(1-(5-chloro-3-(4-(N,N-dimethylsulfamoyl)phenyl)-2-oxo-2,3-dihydro-1H-benzo[d]imidazol-1-yl)cyclopropyl)benzoic acid]", "values": [{"measurement": "IC50", "value": "< 10", "unit": "nM"}]}
{"smiles": "O=C(O)c1cccc(C2(n3c(=O)n(-c4ccc(S(=O)(=O)NC5CC5)cc4)c4cc(Cl)ccc43)CC2)c1", "note": "[Example 211, 3-(1-(5-chloro-3-(4-(N-cyclopropylsulfamoyl)phenyl)-2-oxo-2,3-dihydro-1H-benzo[d]imidazol-1-yl)cyclopropyl)benzoic acid]", "values": [{"measurement": "IC50", "value": "< 10", "unit": "nM"}]}
{"smiles": "O=C(O)c1cccc(C2(n3c(=O)n(-c4ccc(S(=O)(=O)N5CCOCC5)cc4)c4cc(Cl)ccc43)CC2)c1", "note": "[Example 212, 3-(1-(5-chloro-3-(4-(morpholinosulfonyl)phenyl)-2-oxo-2,3-dihydro-1H-benzo[d]imidazol-1-yl)cyclopropyl)benzoic acid]", "values": [{"measurement": "IC50", "value": "< 10", "unit": "nM"}]}
{"smiles": "O=C(O)c1cccc(C2(n3c(=O)n(-c4ccc(S(=O)(=O)NCC5CCC5)cc4)c4cc(Cl)ccc43)CC2)c1", "note": "[Example 213, 3-(1-(5-chloro-3-(4-(N-(cyclobutylmethyl)sulfamoyl)phenyl)-2-oxo-2,3-dihydro-1H-benzo[d]imidazol-1-yl)cyclopropyl)benzoic acid]", "values": [{"measurement": "IC50", "value": "10 to 100", "unit": "nM"}]}
{"smiles": "O=C(O)c1cccc(C2(n3c(=O)n(-c4ccc(S(=O)(=O)N5CCCCC5)cc4)c4cc(Cl)ccc43)CC2)c1", "note": "[Example 214]", "values": [{"measurement": "IC50", "value": "< 10", "unit": "nM"}]}
{"smiles": "O=C(O)c1cccc(C2(n3c(=O)n(-c4ccc(S(=O)(=O)N5CCCC5)cc4)c4cc(Cl)ccc43)CC2)c1", "note": "[Example 215, 3-(1-(5-chloro-2-oxo-3-(4-(pyrrolidin-1-ylsulfonyl)phenyl)-2,3-dihydro-1H-benzo[d]imidazol-1-yl)cyclopropyl)benzoic acid]", "values": [{"measurement": "IC50", "value": "< 10", "unit": "nM"}]}
{"smiles": "CC(C)(O)Cc1ccc(-n2c(=O)n(C3(c4cccc(C(=O)O)c4)CC3)c3ccc(Cl)cc32)cc1", "note": "[Example 216, 3-(1-(5-chloro-3-(4-(2-hydroxy-2-methylpropyl)phenyl)-2-oxo-2,3-dihydro-1H-benzo[d]imidazol-1-yl)cyclopropyl)benzoic acid]", "values": [{"measurement": "IC50", "value": "< 10", "unit": "nM"}]}
{"smiles": "CC(C)(F)Cc1ccc(-n2c(=O)n(C3(c4cccc(C(=O)O)c4)CC3)c3ccc(Cl)cc32)cc1", "note": "[Example 217, 3-(1-(5-chloro-3-(4-(2-fluoro-2-methylpropyl)phenyl)-2-oxo-2,3-dihydro-1H-benzo[d]imidazol-1-yl)cyclopropyl)benzoic acid]", "values": [{"measurement": "IC50", "value": "10 to 100", "unit": "nM"}]}
{"smiles": "CC(C)(CO)c1ccc(-n2c(=O)n(C3(c4cccc(C(=O)O)c4)CC3)c3ccc(Cl)cc32)cc1", "note": "[Example 218, 3-(1-(5-chloro-3-(4-(1-hydroxy-2-methylpropan-2-yl)phenyl)-2-oxo-2,3-dihydro-1H-benzo[d]imidazol-1-yl)cyclopropyl)benzoic acid]", "values": [{"measurement": "IC50", "value": "< 10", "unit": "nM"}]}
{"smiles": "CC(C)(CF)c1ccc(-n2c(=O)n(C3(c4cccc(C(=O)O)c4)CC3)c3ccc(Cl)cc32)cc1", "note": "[Example 219, 3-(1-(5-chloro-3-(4-(1-fluoro-2-methylpropan-2-yl)phenyl)-2-oxo-2,3-dihydro-1H-benzo[d]imidazol-1-yl)cyclopropyl)benzoic acid]", "values": [{"measurement": "IC50", "value": "< 10", "unit": "nM"}]}
{"smiles": "O=C(O)c1cccc(C2(n3c(=O)n(-c4ccc(C5CCOCC5)cc4)c4cc(Cl)cnc43)CC2)c1", "note": "[Example 220, 3-(1-(6-chloro-2-oxo-1-(4-(tetrahydro-2H-pyran-4-yl)phenyl)-1,2-dihydro-3H-imidazo[4,5-b]pyridin-3-yl)cyclopropyl)benzoic acid]", "values": [{"measurement": "IC50", "value": "< 10", "unit": "nM"}]}
{"smiles": "CN(C)c1ccc(-n2c(=O)n(C3(c4cccc(C(=O)O)c4)CC3)c3ncc(Cl)cc32)cc1", "note": "[Example 221, 3-(1-(6-chloro-1-(4-(dimethylamino)phenyl)-2-oxo-1,2-dihydro-3H-imidazo[4,5-b]pyridin-3-yl)cyclopropyl)benzoic acid]", "values": [{"measurement": "IC50", "value": "< 10", "unit": "nM"}]}
{"smiles": "O=C(O)c1cccc(C2(n3c(=O)n(-c4ccc(N5CCOCC5)cc4)c4cc(Cl)cnc43)CC2)c1", "note": "[Example 222, 3-(1-(6-chloro-1-(4-morpholinophenyl)-2-oxo-1,2-dihydro-3H-imidazo[4,5-b]pyridin-3-yl)cyclopropyl)benzoic acid]", "values": [{"measurement": "IC50", "value": "< 10", "unit": "nM"}]}
{"smiles": "CN(C)C(=O)c1ccc(-n2c(=O)n(C3(c4cccc(C(=O)O)c4)CC3)c3ncc(Cl)cc32)cc1", "note": "[Example 223, 3-(1-(6-chloro-1-(4-(dimethylcarbamoyl)phenyl)-2-oxo-1,2-dihydro-3H-imidazo[4,5-b]pyridin-3-yl)cyclopropyl)benzoic acid]", "values": [{"measurement": "IC50", "value": "< 10", "unit": "nM"}]}
{"smiles": "O=C(O)c1cccc(C2(n3c(=O)n(-c4ccc(C(=O)N5CC(O)C5)cc4)c4cc(Cl)cnc43)CC2)c1", "note": "[Example 224, 3-(1-(6-chloro-1-(4-(3-hydroxyazetidine-1-carbonyl)phenyl)-2-oxo-1,2-dihydro-3H-imidazo[4,5-b]pyridin-3-yl)cyclopropyl)benzoic acid]", "values": [{"measurement": "IC50", "value": "< 10", "unit": "nM"}]}
{"smiles": "O=C(O)c1cccc(C2(n3c(=O)n(-c4ccc(C(=O)N5CC6(CCOCC6)C5)cc4)c4cc(Cl)cnc43)CC2)c1", "note": "[Example 225, 3-(1-(1-(4-(7-oxa-2-azaspiro[3.5]nonane-2-carbonyl)phenyl)-6-chloro-2-oxo-1,2-dihydro-3H-imidazo[4,5-b]pyridin-3-yl)cyclopropyl)benzoic acid]", "values": [{"measurement": "IC50", "value": "< 10", "unit": "nM"}]}
{"smiles": "CN(C)C(=O)Cc1ccc(-n2c(=O)n(C3(c4cccc(C(=O)O)c4)CC3)c3ncc(Cl)cc32)cc1", "note": "[Example 226, 3-(1-(6-chloro-1-(4-(2-(dimethylamino)-2-oxoethyl)phenyl)-2-oxo-1,2-dihydro-3H-imidazo[4,5-b]pyridin-3-yl)cyclopropyl)benzoic acid]", "values": [{"measurement": "IC50", "value": "10 to 100", "unit": "nM"}]}
{"smiles": "CS(=O)(=O)c1ccc(-n2c(=O)n(C3(c4cccc(C(=O)O)c4)CC3)c3ncc(Cl)cc32)cc1", "note": "[Example 227, 3-(1-(6-chloro-1-(4-(methylsulfonyl)phenyl)-2-oxo-1,2-dihydro-3H-imidazo[4,5-b]pyridin-3-yl)cyclopropyl)benzoic acid]", "values": [{"measurement": "IC50", "value": "10 to 100", "unit": "nM"}]}
{"smiles": "O=C(O)c1cccc(C2(n3c(=O)n(-c4ccc(C5CCOCC5)cc4)c4cc(Cl)cnc43)CC2)c1F", "note": "[Example 228, 3-(1-(6-chloro-2-oxo-1-(4-(tetrahydro-2H-pyran-4-yl)phenyl)-1,2-dihydro-3H-imidazo[4,5-b]pyridin-3-yl)cyclopropyl)-2-fluorobenzoic acid]", "values": [{"measurement": "IC50", "value": "10 to 100", "unit": "nM"}]}
{"smiles": "CN(C)c1ccc(-n2c(=O)n(C3(c4cccc(C(=O)O)c4F)CC3)c3ncc(Cl)cc32)cc1", "note": "[Example 229, 3-(1-(6-chloro-1-(4-(dimethylamino)phenyl)-2-oxo-1,2-dihydro-3H-imidazo[4,5-b]pyridin-3-yl)cyclopropyl)-2-fluorobenzoic acid]", "values": [{"measurement": "IC50", "value": "< 10", "unit": "nM"}]}
{"smiles": "O=C(O)c1cccc(C2(n3c(=O)n(-c4ccc(N5CCOCC5)cc4)c4cc(Cl)cnc43)CC2)c1F", "note": "[Example 230]", "values": [{"measurement": "IC50", "value": "10 to 100", "unit": "nM"}]}
{"smiles": "O=C(O)c1cccc(C2(n3c(=O)n(-c4ccc(C(=O)N5CCCC5)cc4)c4cc(Cl)cnc43)CC2)c1F", "note": "[Example 231, 3-(1-(6-chloro-2-oxo-1-(4-(pyrrolidine-1-carbonyl)phenyl)-1,2-dihydro-3H-imidazo[4,5-b]pyridin-3-yl)cyclopropyl)-2-fluorobenzoic acid]", "values": [{"measurement": "IC50", "value": "< 10", "unit": "nM"}]}
